Experimental data as given in patent publication US20240376097A1, “BCL-2 Inhibitor” (BeiGene Ltd., priority 2020, published 2024).
Like-named read-outs stand apart in the source and are kept apart here.

Assays:
[1] = target: recombinant human Bcl-2 D103Y protein (Homo sapiens (Human), UniProt P10415, D103Y); experiment: Bcl-2-D103Y Biochemical Assay (TR-FRET); format: binding; settings: for IC50: TR-FRET, FITC labeled Bak peptide; for Ratio of Bcl-2 D103Y/Bcl-2 WT: ratio of IC50; for ratio of Bcl-2 D103Y/Bcl-2 wt, compared with F91b in WO2019210828: comparison in words
Chain of recombinant human Bcl-2 D103Y protein (P10415 whole entry D103Y): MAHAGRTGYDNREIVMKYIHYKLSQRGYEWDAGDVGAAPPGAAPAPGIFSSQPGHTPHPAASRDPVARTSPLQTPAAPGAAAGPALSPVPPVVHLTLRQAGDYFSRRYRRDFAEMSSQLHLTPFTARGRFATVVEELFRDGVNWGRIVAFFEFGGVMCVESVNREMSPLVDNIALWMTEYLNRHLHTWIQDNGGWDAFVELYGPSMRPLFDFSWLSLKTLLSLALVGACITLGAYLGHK
Method in brief: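 Recombinant human Bcl-2 D103Y binding to its ligand measured by TR-FRET (ex 337 nm, em 490/520 nm) with increasing compound concentrations. Percent inhibition from the 490/520 nm ratio; IC50 from four-parameter logistic fit.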

[2] = target: Recombinant human Bcl-2 protein (Homo sapiens (Human), UniProt P10415); experiment: Bcl-2 TR-FRET Assay; format: binding
Chain of Recombinant human Bcl-2 protein (P10415 whole entry): as the sequence (P10415 whole entry D103Y) above, with Y103D counted along it
Method in brief: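 Compounds were pre-incubated with 0.05 nM recombinant Bcl-2 for 0.5 h at room temperature in potassium phosphate buffer, pH 7.5. FITC-Bak peptide (0.5 nM) and Tb-cryptate antibody were then added for 1 h. Percent inhibition from TR-FRET signals gave IC50 values.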

[3] = test system: BCL-2 G101V knock-in cell line H96 (derive from RS4;11); experiment: Bcl 2-G101V Knock-In RS4;11 Cell Proliferation Assay; format: cell-based; settings: Homo sapiens, RS4-11, 48 h, RS4;11 Bcl-2 G101V knock-in clone H96, 48 hrs, CellTiter-GLO, read-out: Cellular proliferation assay (IC50, nM) RS4
Method in brief: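 H96, a CRISPR-generated RS4;11 clone carrying BCL2-G101V knock-in (WES/RNA-seq validated), seeded 50,000 per well and exposed 48 h at 37 °C to 10-point dilutions topping at 1 or 10 μM. Viability by CellTiter-Glo luminescence; mean IC50.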

[4] = Bcl-2 wild type, TR-FRET, read-out: Biochemical assay (IC50, nM) Bcl-2 WT
[5] = wild type Bcl-2, unit inferred, read-out: Bcl-2 WT

Compound	IC50 [1] [pM]	Ratio of Bcl-2 D103Y/Bcl-2 WT [1]	IC50 [2, 4] [nM]	IC50 [2, 5] [nM]	IC50 [3] [nM]	ratio of Bcl-2 D103Y/Bcl-2 wt, compared with F91b in WO2019210828 [1]
COc1cc(CN2CCN(C3CC4(C3)CN(c3ccc(C(=O)NS(=O)(=O)c5ccc(NC[C@H]6CC[C@](C)(O)CC6)c([N+](=O)[O-])c5)c(Oc5cnc6[nH]cc(F)c6c5)c3)C4)[C@H](c3ccccc3C(C)C)C2)cc2c1OCCC2 [Example 312, 2-((3-fluoro-1H-pyrrolo[2,3-b]pyridin-5-yl)oxy)-N-((4-((((1r,4r)-4-hydroxy-4-methylcyclohexyl)methyl)amino)-3-nitrophenyl)sulfonyl)-4-(6-((R)-2-(2-isopropylphenyl)-4-((8-methoxychroman-6-yl)methyl)piperazin-1-yl)-2-azaspiro[3.3]heptan-2-yl)benzamide]	81	1.0	0.094	0.08	0.3	–
COc1cc(CN2CCN(C3CC4(C3)CN(c3ccc(C(=O)NS(=O)(=O)c5ccc(NC[C@H]6CC[C@](C)(O)CC6)c([N+](=O)[O-])c5)c(Oc5cnc6[nH]cc(F)c6c5)c3)C4)[C@H](c3ccccc3C(C)C)C2)ccc1C1CC1 [Example 232, 4-(6-((R)-4-(4-cyclopropyl-3-methoxybenzyl)-2-(2-isopropylphenyl)piperazin-1-yl)-2-azaspiro[3.3]heptan-2-yl)-2-((3-fluoro-1H-pyrrolo[2,3-b]pyridin-5-yl)oxy)-N-((4-((((1r,4r)-4-hydroxy-4-methylcyclohexyl)methyl)amino)-3-nitrophenyl)sulfonyl)benzamide]	950	1.6	0.7	0.59	0.19	–
COc1ccc(CN2CCN(C3CC4(C3)CN(c3ccc(C(=O)NS(=O)(=O)c5ccc(NC[C@H]6CC[C@](C)(O)CC6)c([N+](=O)[O-])c5)c(Oc5cnc6[nH]ccc6c5)c3)C4)[C@H](c3ccccc3C(C)C)C2)cc1OC [Example 145, 2-((1H-pyrrolo[2,3-b]pyridin-5-yl)oxy)-4-(6-((R)-4-(3,4-dimethoxybenzyl)-2-(2-isopropylphenyl)piperazin-1-yl)-2-azaspiro[3.3]heptan-2-yl)-N-((4-((((1r,4r)-4-hydroxy-4-methylcyclohexyl)methyl)amino)-3-nitrophenyl)sulfonyl)benzamide]	45	1.6	0.028	0.028	0.23	significantly lower
COc1ccc(CN2CCN(C3CC4(CCN(c5ccc(C(=O)NS(=O)(=O)c6ccc(NC[C@H]7CC[C@](C)(O)CC7)c([N+](=O)[O-])c6)c(Oc6cnc7[nH]cc(F)c7c6)c5)CC4)C3)[C@H](c3ccccc3C(C)C)C2)cc1OC [Example 127, 4-(2-((R)-4-(3,4-dimethoxybenzyl)-2-(2-isopropylphenyl)piperazin-1-yl)-7-azaspiro[3.5]nonan-7-yl)-2-((3-fluoro-1H-pyrrolo[2,3-b]pyridin-5-yl)oxy)-N-((4-((((1r,4r)-4-hydroxy-4-methylcyclohexyl)methyl)amino)-3-nitrophenyl)sulfonyl)benzamide]	110	1	0.071	0.1	0.367	significantly lower
COc1cc(CN2CCN(C3CC4(CCN(c5ccc(C(=O)NS(=O)(=O)c6ccc(NC[C@H]7CC[C@](C)(O)CC7)c([N+](=O)[O-])c6)c(Oc6cnc7[nH]cc(F)c7c6)c5)CC4)C3)[C@H](c3ccccc3C(C)C)C2)cc2ccoc12 [Example 281, 2-((3-fluoro-1H-pyrrolo[2,3-b]pyridin-5-yl)oxy)-N-((4-((((1r,4r)-4-hydroxy-4-methylcyclohexyl)methyl)amino)-3-nitrophenyl)sulfonyl)-4-(2-((R)-2-(2-isopropylphenyl)-4-((7-methoxybenzofuran-5-yl)methyl)piperazin-1-yl)-7-azaspiro[3.5]nonan-7-yl)benzamide]	510	1.2	0.43	0.43	0.31	–
